The text below walks through data of patent US7632413B2, “Process for treating a liquid medium using ultrasound” (Ashland Licensing and Intellectual Property LLC, priority 2002, dated 2009).

This assay has as its system K562 cells. Put plainly: Annexin-V/PI assay of ultrasonically induced apoptosis in the presence of active oxygen scavengers. The format is cell-based, Human. As to conditions: L-histidine 10 mM and/or mannitol 100 mM; for percentage of cells displaying phosphatidylserine externalization: 5 hours post-treatment, mean ± SEM, 4 experiments. The procedure:
Human leukemia cell lines (K562, Nalm-6, KG1a, and HL-60) obtained from the American Type Culture Collection (ATCC, Rockville, Md., USA) were grown in RPMI-1640 (BioWhittaker, Walkersville, Md., USA) supplemented with 10% fetal calf serum (Gibco, Grand Island, N.Y., USA) and 1% L-glutamine (Gibco). Leukemic cells were harvested, resuspended in phosphate-buffered saline (PBS, pH=7.2, Gibco), and immediately used for the experiment. Heparinized venous blood was obtained from healthy volunteers and leukemic patients. Mononuclear cells were separated by Ficoll-Hypaque gradient density centrifugation (International Medical Products, Brussels, Belgium). The following describes the ultrasonic treatment on the cells. Human leukemia cell lines (K562, HL-60, KG1a, and Nalm-6), primary leukemic cells, and normal mononuclear cells were treated by ultrasound at a frequency of 1.8 MHz during various exposure times at an acoustical power of 7 mW/mL and irradiation (ON/OFF) cycles of 5.5 ms/3 ms. During apoptosis, phosphatidylserine residues flip from the inside to the outside of the plasma membrane and this change can be detected using Annexin-FITC, which binds to the PS residues. The following describes an Annexin V binding assay that was performed. Flow cytometric analysis of Annexin-V-fluorescein isothiocyanate (FITC)-and propidium iodide (PI)-stained cells was performed using the kit purchased from Biosource International (Camarillo, Calif., USA) as recommended by the manufacturer. Data were presented as dot plots showing the change in mean fluorescence intensity of Annexin-V-FITC/propidium iodide (not shown). The following procedure was performed to determine the effect of active oxygen scavengers on the induction of apoptosis by high-frequency ultrasound. K562 cells were incubated with L-histidine (10 mM) and/or mannitol (100 mM). Some cells were treated by high-frequency ultrasound and others were not. Cell apoptosis was detected by an Annexin-V/PI assay.

Take `N[C@@H](Cc1c[nH]cn1)C(=O)O` [Histidine, L-histidine]: the “percentage of cells displaying phosphatidylserine externalization” value was determined as 24 ± 8% (1 US treatment), 36 ± 11% (3 US treatments) and 15 ± 5% (No US treatment). The inhibition of apoptosis (apoptosis induced by 3 successive ultrasound treatments) was 43%.
With `OC[C@@H](O)[C@@H](O)[C@H](O)[C@H](O)CO` [Mannitol, mannitol], the “percentage of cells displaying phosphatidylserine externalization” value reads like this: (1 US treatment) 21 ± 5%; (3 US treatments) 30 ± 3%; (No US treatment) 11 ± 4%. The inhibition (commonly the share of the control response that was lost under treatment) at 100000 µM (Homo sapiens, K562, apoptosis induced by 3 successive ultrasound treatments) is 47%.
